This is an account of results in patent US20220143061A1, “3'3'-CYCLIC DINUCLEOTIDES AND PRODRUGS THEREOF” (INSTITUTE OF ORGANIC CHEMISTRY AND BIOCHEMISTRY ASCR, V.V.I., priority 2019, published 2022).

Like-named read-outs stand apart in the source and are kept apart here. Where only a bound is given, the exact number is not on record here.

The target of one assay is T1, WT STING (Homo sapiens, UniProt Q86WV6, H232R).
T1 construct: 8xHis (N, cleaved yes); SUMO (N, cleaved yes); made in house
The assay is described as follows: Differential Scanning Fluorimetry with WT STING. The class given is binding. The conditions noted are these: thermal shift vs apoprotein; 150 μM CDN; truncated WT STING 0.1 mg/ml. The protocol:
(§1) Purified PCR products were cleaved with restriction enzymes BamHI (cat. #R0136S, NEB, Ipswich, USA) and NotI (cat. #R0189S, NEB, Ipswich, USA) and cloned into the pSUMO vector linearized with the identical enzymes.
(§2) DNase I (cat. #D5025, Sigma Aldrich, Czech Republic) and RNase A (cat. #R6513, Sigma Aldrich, Czech Republic) were added (final concentration 50 μg/ml) together with MgCl2 (final concentration 5 mmol·l^−1) to the homogenate and bacteria were lysed using French Press G-M™ High-Pressure Cell Press Homogenizer (1500 psi, 3 cycles). […] The resin was poured into a chromatography column, washed with 50 ml buffer A (50 mmol·l^−1 TrisCl (pH 8.0), 800 mmol·l^−1 NaCl, 3 mmol·l^−1 β-mercaptoethanol; 10% glycerol; 20 mmol·l^−1 imidazole) and 8-His-SUMO tagged STING proteins were eluted with 15 ml buffer A containing 300 mmol·l^−1 imidazole. […] Proteins were concentrated with Amicon® Ultra-15 10 K device (cat. #UFC901008, Merck Millipore, Billerica, USA) and flash frozen in liquid N2.
(§3) 20 μL solutions of the reaction mixtures were pipetted in triplicates into 96 well optical reaction plates and thermal denaturation of samples were performed on real time PCR cycler (LightCycler® 480 Instrument II—Roche, Basel, Switzerland). The first derivative of the thermal denaturation curves was performed to calculate denaturing temperatures of STING-CDN complexes and STING apoproteins. The thermal shift for each CDN was calculated by subtracting the average denaturing temperature of STING apoprotein from the average denaturing temperature of STING CDN complex.

The target in another assay is T2, AQ STING (G230A-R293Q) (Homo sapiens, UniProt Q86WV6, G230A/H232R/R293Q).
T2 construct: 8xHis (N, cleaved yes); SUMO (N, cleaved yes); made in house
T2 sequence (Q86WV6 140-343 G230A/H232R/R293Q): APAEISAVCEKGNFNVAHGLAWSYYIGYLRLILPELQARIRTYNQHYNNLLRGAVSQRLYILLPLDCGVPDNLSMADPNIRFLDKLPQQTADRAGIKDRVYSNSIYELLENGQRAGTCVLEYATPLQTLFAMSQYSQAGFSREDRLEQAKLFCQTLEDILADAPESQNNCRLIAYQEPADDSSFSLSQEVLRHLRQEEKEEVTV
The experiment in a line: Differential Scanning Fluorimetry with AQ STING. The class given is binding. As to conditions: thermal shift vs apoprotein; 150 μM CDN; truncated AQ STING 0.1 mg/ml. As to the method:
as §1, §2, §3
A general note: DSF heats the sample and reads unfolding from a dye or from intrinsic fluorescence.

Assay [1] has as its target T3, human wild type STING (WT STING) (Homo sapiens, UniProt Q86WV6, H232R).
T3 construct: host or cells: 293T cells (ATCC CRL-3216), stably double transfected with pUNO1-hSTING-WT and pGL64.27-4×ISRE
The experiment in a line: Digitonin assay using 293T wtSTING-FL reporter cells. The class given is cell-based. The conditions noted are these: 293T wtSTING-FL cells, digitonin buffer 30 minutes, then 5 hours; ISRE firefly luciferase. The source says: (§4) Two complementary oligonucleotides of the sequence […] […] […] […] […] The oligonucleotides were mixed in equal molar amounts, hybridized, and cleaved by restriction endonucleases HindIII (cat. #. R0104S, NEB, Ipswich, USA) and BglII (cat. #R0144S, NEB, Ipswich, USA). Ultimately, they were ligated into plasmid pGL4.27 (cat. #E6651, Promega, Madison, USA) linearized with the same enzymes. As result the sequence with four ISRE sites was placed upstream of the minimum promoter of firefly luciferase reporter gene.
(§5) After 5 minutes incubation at room temperature (RT), 250 μL of the mixture was added dropwise to the cells in one well. Cells were incubated 36 hours at 37° C. with 5% CO2, and then detached with 0.05% Trypsin and 0.22 g/L EDTA (both cat. #L0941, Biowest, Riverside, USA).
(§6) Transfected cells were seeded onto poly-D-lysine coated six well plates at density 50,000 cells per 1 cm^2 in DMEM medium with high glucose containing 10% heat inactivated FBS, 30 μg/mL blasticidin (cat. #ant-b1-05, InvivoGen, San Diego, USA), 0.06 mg/ml Penicillin G and 0.1 mg/ml Streptomycin Sulfate (both cat. #. L0018, Biowest, Riverside, USA). The medium was replenished every 3-4 days until visible colonies of cells resistant to blasticidin were formed.
(§7) Blasticidin resistant cells stably expressing WT STING were further transfected with pGL64.27-4×ISRE plasmid following the same procedure as described above. […] Homogeneous culture of stably double transfected cells was prepared by limiting dilution of cells in 96 well plates and wells with cells were selected that originated from a single cell.
The medium was removed next day and three fold serial dilutions of compounds in Digitonin buffer containing 50 mmol·l^−1 HEPES (cat. #H3375, Sigma Aldrich, Czech Republic) pH 7.0, 100 mmol·l^−1 KCl, 3 mmol·l^−1 MgCl2, 0.1 mmol·l^−1 DTT (cat. #D0632, Sigma Aldrich, Czech Republic), 85 mmol·l^−1 Sucrose (cat. #S7903, Sigma Aldrich, Czech Republic), 0.2% BSA (cat. #A2153, Sigma Aldrich, Czech Republic), 1 mmol·l^−1 ATP (cat. #A1852, Sigma Aldrich, Czech Republic), 0.1 mmol·l^−1 GTP (cat. #G8877, Sigma Aldrich, Czech Republic), and 10 μg/mL Digitonin A (cat. #D141, Sigma Aldrich, Czech Republic) were added to the cells. The buffer was removed after 30 minutes incubation at 37° C. with 5% C02, the cells were washed once with 100 μl of cultivation medium, and 100 μl of medium was added to each well. The plates with cells were incubated for 5 hours at 37° C. with 5% CO2, 50 μl of the medium was removed and 30 μl of ONE-Glo™ Luciferase Assay System reagent (cat. #E6120, Promega, Madison, USA) was added to each well. Luminesce was read on Synergy H1 (Biotek, Winooski, USA).

Assay [2] has as its target T3, human wild type STING (WT STING). The experiment in a line: 293T WT STING standard reporter assay. The class given is cell-based. The conditions noted are these: 293T wtSTING-FL cells, no digitonin, 7 hours; ISRE firefly luciferase; read-out: 293T WT STING EC50.
Excerpt: as §4, §5, §6, §7
The medium was removed the next day and three-fold serial dilutions of compounds in 100 μl medium were added to the cells. The plates were incubated for 7 hours at 37° C. with 5% CO2. Next 50 μl of the medium was removed from wells, and 30 μl of ONE-Glo™ Luciferase Assay System reagent (cat. #E6120, Promega, Madison, USA) was added to each well. Luminescence was read on Synergy H1 (Biotek, Winooski, USA).
On the technique in general: A reporter such as luciferase makes a cellular process visible.

In assay [3] the test system is peripheral blood mononuclear cell (PBMC). The experiment in a line: Peripheral blood mononuclear cell assay (cytokine levels). The format is cell-based. The conditions noted are these: 1 h with compound, wash, 15 hour incubation, average of one to four donors. The protocol:
Selected compounds were tested in an in vitro peripheral blood mononuclear cell (PBMC) assay. […] Serially diluted tested compounds were added to wells in 50 μl of cultivation medium and cell were incubated with compounds for 1 h at 37° C. with 5% CO2. Plates with cells were then spun 500 g for 5 minutes and medium was removed. Cells were washed twice with the cell culture medium by the use of centrifugation and gently resuspended in 100 μl medium without compounds. After 15 hour incubation at 37° C. with 5% CO2, the cell culture medium was collected and the levels of interferon-alpha (INF-α), interferon-gamma (INF-γ) and tumor necrosis factor-alpha (TNF-α) were determined with ProcartaPlex Assays (ThermoFisher, Waltham, USA) and MAGPIX System (Merck KGaA, Darmstadt, Germany). […] Values reported are an average of runs from one to four donors.

T1 sequence (Q86WV6 140-343 H232R): as the sequence (Q86WV6 140-343 G230A/H232R/R293Q) above, with A91G, Q154R counted along it
T3 sequence (Q86WV6 whole entry H232R): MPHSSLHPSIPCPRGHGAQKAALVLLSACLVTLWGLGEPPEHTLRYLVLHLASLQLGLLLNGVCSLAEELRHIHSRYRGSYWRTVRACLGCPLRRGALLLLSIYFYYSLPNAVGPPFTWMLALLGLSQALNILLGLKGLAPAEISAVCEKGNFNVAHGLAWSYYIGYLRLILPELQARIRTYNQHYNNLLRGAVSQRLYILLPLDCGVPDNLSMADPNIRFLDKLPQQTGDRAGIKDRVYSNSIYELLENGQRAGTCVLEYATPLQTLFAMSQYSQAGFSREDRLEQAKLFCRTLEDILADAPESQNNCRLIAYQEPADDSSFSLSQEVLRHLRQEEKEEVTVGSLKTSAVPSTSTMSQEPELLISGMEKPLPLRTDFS

One may read the EC50 as the midpoint of the concentration-response curve. `Nc1ncnc2c1ncn2[C@@H]1O[C@@H]2COP(=O)(S)O[C@H]3[C@@H](F)[C@H](n4cnc5c(N)ncnc54)O[C@@H]3COP(=O)(O)CO[C@H]2[C@H]1F` (single isomer, unassigned) [Compound 11a]: the “DSF ΔTm WT STING” value at WT STING stood at 4.8 °C. For the same molecule, at AQ STING (G230A-R293Q), the “DSF ΔTm AQ STING” value was found to be 9.3 °C. Further, the EC50 is 0.01 µM in assay [1]; 4.5 µM in assay [2]; 400 µM in assay [3] (read-out: PBMC EC50 IFN-α); 130 µM in assay [3] (read-out: PBMC EC50 IFN-γ); 90 µM in assay [3] (read-out: PBMC EC50 TNF-α).
For `Nc1ncnc2c1ncn2[C@@H]1O[C@@H]2COP(=O)(S)O[C@H]3[C@@H](F)[C@H](n4cnc5c(N)ncnc54)O[C@@H]3COP(=O)(O)CO[C@H]2[C@H]1F` (single isomer, unassigned) [Compound 11b], at WT STING, the “DSF ΔTm WT STING” value turned out to be 13.6 °C. Besides, on AQ STING (G230A-R293Q), the “DSF ΔTm AQ STING” value turned out to be 18.2 °C. The 50% effective concentration (EC50) was 0.05 µM in assay [1]; 1.4 µM in assay [2]; 123 µM in assay [3] (read-out: PBMC EC50 IFN-α); greater than 125 µM in assay [3] (read-out: PBMC EC50 IFN-γ); 118 µM in assay [3] (read-out: PBMC EC50 TNF-α).
With `Nc1ncnc2c1ncn2[C@@H]1O[C@@H]2COP(=O)(S)O[C@H]3[C@@H](F)[C@H](n4cnc5c(N)ncnc54)O[C@@H]3COP(=O)(S)CO[C@H]2[C@H]1F` (single isomer, unassigned) [Compound 14a], the “DSF ΔTm WT STING” value on WT STING stood at 8.3 °C. The “DSF ΔTm AQ STING” value at AQ STING (G230A-R293Q) came out at 16.1 °C. Moreover, the values for the 50% effective concentration (EC50) in assay [1] and in assay [2] were 0.06 µM and 15 µM, respectively.
`Nc1ncnc2c1ncn2[C@@H]1O[C@@H]2COP(=O)(S)O[C@H]3[C@@H](F)[C@H](n4cnc5c(N)ncnc54)O[C@@H]3COP(=O)(S)CO[C@H]2[C@H]1F` (single isomer, unassigned) [Compound 14b]: the “DSF ΔTm WT STING” value on WT STING amounted to 8.6 °C. Moreover, at AQ STING (G230A-R293Q), the “DSF ΔTm AQ STING” value amounted to 16.7 °C. In addition, the 50% effective concentration (EC50) in assay [1] is 0.01 µM; in assay [2], 0.2 µM; in assay [3] (read-out: PBMC EC50 IFN-α), 46 µM; in assay [3] (read-out: PBMC EC50 IFN-γ) it was 33 µM; in assay [3] (read-out: PBMC EC50 TNF-α), 23 µM.
For the molecule `Nc1ncnc2c1ncn2[C@@H]1O[C@@H]2COP(=O)(S)O[C@H]3[C@@H](F)[C@H](n4cnc5c(N)ncnc54)O[C@@H]3COP(=O)(S)CO[C@H]2[C@H]1F` (single isomer, unassigned) [Compound 14c], on WT STING, the “DSF ΔTm WT STING” value came to 8.2 °C. For the same molecule, the “DSF ΔTm AQ STING” value on AQ STING (G230A-R293Q) turned out to be 17.6 °C. Moreover, the EC50 in assay [1] came out at 0.007 µM; in assay [2] it was 0.3 µM; in assay [3] (read-out: PBMC EC50 IFN-α), 68 µM; in assay [3] (read-out: PBMC EC50 IFN-γ) it was 44 µM; in assay [3] (read-out: PBMC EC50 TNF-α), 51 µM.
In the case of `Nc1nc2c(ncn2[C@@H]2O[C@@H]3COP(=O)(O)O[C@@H]4[C@H](O)[C@@H](COP(=O)(O)O[C@@H]2[C@@H]3O)O[C@H]4n2cnc3c(N)ncnc32)c(=O)[nH]1` [2′2′-cGAMP, reference compound], the “DSF ΔTm AQ STING” value at AQ STING (G230A-R293Q) turned out to be 19.4 °C. For the same molecule, the values for the EC50 in assay [1] and in assay [2] were 0.03 µM and 10.2 µM, respectively.
As to `Nc1ncnc2c1ncn2[C@@H]1O[C@@H]2COP(=O)(O)O[C@H]3[C@@H](O)[C@H](n4cnc5c(N)ncnc54)O[C@@H]3COP(=O)(O)O[C@H]2[C@H]1O` [3′3′-c-di-AMP, reference compound], the “DSF ΔTm WT STING” value on WT STING stood at 2.5 °C. The “DSF ΔTm AQ STING” value on AQ STING (G230A-R293Q) is 9.0 °C. The half-maximal effective concentration (EC50) in assay [1] came to 0.3 µM; in assay [2], 202 µM.
Regarding `Nc1ncnc2c1ncn2[C@@H]1O[C@@H]2COP(=O)(O)O[C@H]3[C@@H](F)[C@H](n4cnc5c(N)ncnc54)O[C@@H]3COP(=O)(O)CO[C@H]2[C@H]1F` [Compound 21, (2R,3R,3aR,7aR,9R,10R,10aR,15aR)-2,9-bis(6-amino-9H-purin-9-yl)-3,10-difluoro-5,13-dihydroxydecahydro-2H-difuro[3,2-d:3′,2′-k][1,3,7,10]tetraoxa[2,8]diphosphacyclotridecine 5,13-dioxide], the “DSF ΔTm WT STING” value at WT STING was determined as 9.4 °C. For the same molecule, the “DSF ΔTm AQ STING” value on AQ STING (G230A-R293Q) came to 16.1 °C. Moreover, the EC50 stood at 0.01 µM in assay [1]; 3.1 µM in assay [2]; 100 µM in assay [3] (read-out: PBMC EC50 IFN-α); 26 µM in assay [3] (read-out: PBMC EC50 IFN-γ); 50 µM in assay [3] (read-out: PBMC EC50 TNF-α).
